{
  "source": "patent US6358987B1",
  "about": "“Metalloproteinase inhibitors” (British Biotech Pharmaceuticals Limited, priority 1997, dated 2002)",
  "data": [
    {"units": {"melting point": "°C"}, "values": [
      {"smiles": "COc1ccc(S(=O)(=O)N(C)C[C@H](C(=O)NO)[C@@H](CCCc2ccc(-c3ccccc3)cc2)C(=O)N[C@H](CO)C(C)(C)C)cc1", "note": "[Example 13, 3R-(3-Biphenyl4-yl-propyl)-N^1-hydroxy-N^4-(1S-hydroxymethyl-2,2-dimethyl-propyl)-2S-{[(4-methoxy-benzenesulfonyl)-methyl-amino]-methyl}-succinamide]", "melting point": "226 to 228"},
      {"smiles": "CC(C)C[C@@H](C(=O)N[C@H](CO)Cc1ccccc1)[C@H](CN(C)S(C)(=O)=O)C(=O)NO", "note": "[Example 3, N^4-(1S-Benzyl-2-hydroxy-ethyl)-N^1-hydroxy-3R-isobutyl-2R-[(methanesulfonyl-methyl-amino)-methyl]-succinamide]", "melting point": "200 to 202"},
      {"smiles": "CC(C)C[C@@H](C(=O)N[C@H](CO)Cc1ccc(O)cc1)[C@H](CN(C)S(C)(=O)=O)C(=O)NO", "note": "[Example 6, N^1-Hydroxy-N^4-[2-hydroxy-1S-(4-hydroxy-benzyl)-ethyl]-3R-isobutyl-2S-[(methanesulfonyl-methyl-amino)-methyl]-succinamide]", "melting point": "125 to 128"},
      {"smiles": "CC(C)C[C@@H](C(=O)N[C@H](CO)Cc1c[nH]cn1)[C@H](CN(C)S(C)(=O)=O)C(=O)NO", "note": "[Example 5, N^1-Hydroxy-N^4-[2-hydroxy-1S-(1H-imidazol-4-ylmethyl)-ethyl]-3R-isobutyl-2S-[(methanesulfonyl-methyl-amino)-methyl]-succinamide]", "melting point": "219 to 221"},
      {"smiles": "CN(C[C@H](C(=O)NO)[C@@H](CCCc1ccc(-c2ccccc2)cc1)C(=O)N[C@H](CO)Cc1ccccc1)S(C)(=O)=O", "note": "[Example 12, N^4-(1S-Benzyl-2-hydroxy-ethyl)-3R-(3-biphenyl-4-yl-propyl)-N^1-hydroxy-2S-[(methanesulfonyl-methyl-amino)-methyl]-succinamide]", "melting point": "201 to 207"},
      {"smiles": "CC(C)C[C@@H](C(=O)N[C@H](CO)C(C)(C)C)[C@H](CN(C)S(C)(=O)=O)C(=O)NO", "note": "[Example 4, N^1-Hydroxy-N^4-(1S-hydroxymethyl-2,2-dimethylpropyl)-3R-isobutyl-2R-[(methanesulfonyl-methyl-amino)-methyl]-succinamide]", "melting point": "167 to 169"},
      {"smiles": "COc1ccc(S(=O)(=O)N(C)C[C@H](C(=O)NO)[C@@H](CC2CCCC2)C(=O)N[C@H](CO)C(C)(C)C)cc1", "note": "[Example 10, 3R-Cyclopentylmethyl-N^1-hydroxy-N^4-(1S-hydroxymethyl-2,2-dimethyl-propyl)-2S-{[(4-methoxy-benzenesulfonyl)-methyl-amino]-methyl}-succinamide]", "melting point": "181 to 184"},
      {"smiles": "COc1ccc(S(=O)(=O)N(C)C[C@H](C(=O)NO)[C@@H](CC(C)C)C(=O)N[C@H](CO)Cc2c[nH]cn2)cc1", "note": "[Example 9]", "melting point": "208 to 209"},
      {"smiles": "COc1ccc(S(=O)(=O)N(C)C[C@H](C(=O)NO)[C@@H](CCCc2ccc(-c3ccccc3)cc2)C(=O)N[C@H](CO)Cc2ccccc2)cc1", "note": "[Example 14, N^4-(1S-Benzyl-2-hydroxy-ethyl)-3R-(3-biphenyl-4-yl-propyl)-N^1-hydroxy-2S-{[(4-methoxy-benzenesulfonyl)-methyl-amino]-methyl}-succinamide]", "melting point": "245 to 247"},
      {"smiles": "COCCOCCNC(=O)[C@@H](NC(=O)[C@H](CC(C)C)[C@H](CN(C)S(C)(=O)=O)C(=O)NO)C(C)(C)C", "note": "[Example 2, N^1-Hydroxy-3R-isobutyl-2R-[(methanesulfonyl-methyl-amino)-methyl]-N^4-{1S-[2-(2-methoxy-ethoxy)-ethyl-carbamoyl]-2,2-dimethyl-propyl}-succinamide]", "melting point": "192 to 193"},
      {"smiles": "COc1ccc(S(=O)(=O)N(C)C[C@H](C(=O)NO)[C@@H](CC(C)C)C(=O)N[C@H](CO)Cc2ccccc2)cc1", "note": "[Example 8, N^4-(1S-Benzyl-2-hydroxy-ethyl)-N^1-hydroxy-3R-isobutyl-2S-{[(4-methoxy-benzenesulfonyl)-methyl-amino]-methyl}-succinamide]", "melting point": "196 to 203"},
      {"smiles": "CC(C)C[C@@H](C(=O)N[C@H](C(=O)N(C)C)C(C)(C)C)[C@H](CN(C)S(C)(=O)=O)C(=O)NO", "note": "[Example 1]", "melting point": "216 to 218"},
      {"smiles": "COc1ccc(S(=O)(=O)N(C)C[C@H](C(=O)NO)[C@@H](CC(C)C)C(=O)N[C@H](C(=O)N(C)C)C(C)(C)C)cc1", "note": "[Example 7, N^4-(1S-Dimethylcarbamoyl-2,2-dimethyl-propyl)-N^1-hydroxy-3R-isobutyl-2S-{[(4-methoxy-benzenesulfonyl)-methyl-amino]-methyl}-succinamide]", "melting point": "217 to 222"}
    ]}
  ]
}
